A short description of the series: solvent given as SMILES.

Several values for one entry are separate records, joined by “and”; a condition that tells them apart may be missing. Equal entries are not always repeated.

In turn, `COc1ccc(-c2nc(-c3cc(Cl)sc3C)c(-c3cc(Cl)sc3C)[nH]2)cc1` showed an emission maximum (in CC#N) of 489 nm.

For `Cc1cc(-c2ccc(-n3c4ccccc4c4ccccc43)cc2)nc(-c2ccc(-n3c4ccccc4c4ccccc43)cc2)n1`, the emission maximum is recorded as 423 nm (in C1CCOC1), 461 nm (in CN(C)C=O), 398 nm (in Cc1ccccc1) and 426 nm (in ClC(Cl)Cl).

The molecule `Cc1cc(C)c(B2c3cc(C(C)(C)C)ccc3-c3cccc4cc(C(C)(C)C)cc2c34)c(C)c1` registered an emission maximum (in C1CCCCC1) of 431 nm.

`Cc1ccc2c(c1)C(c1ccccc1)(c1ccccc1)c1cc(C)ccc1N2c1cc(C(C)C)c(B2c3ccccc3Sc3ccccc32)c(C(C)C)c1`: the emission maximum runs as follows: (in Cc1ccccc1) 487 nm; (in O=P(c1ccccc1)(c1ccccc1)c1ccc2oc3ccc(P(=O)(c4ccccc4)c4ccccc4)cc3c2c1) 485 nm.

Regarding `O=C(O)CCCCCn1c2ccccc2c(=O)c2cc(Br)ccc21`, the emission maximum (in O) came to 432 nm.

`CN(C)c1ccc(-c2ncnc3ccccc23)cc1` had an emission maximum (in C1CCCCC1) of 421 nm; an emission maximum (in C1CCOC1) of 483 nm; an emission maximum (in CC#N) of 529 nm; an emission maximum (in CS(C)=O) of 543 nm; an emission maximum (in ClCCl) of 490 nm.

`c1ccc(-c2nc(-c3cc(-n4c5ccccc5c5ccccc54)cc(-n4c5ccccc5c5ccccc54)c3)nc(-c3cc(-n4c5ccccc5c5ccccc54)cc(-n4c5ccccc5c5ccccc54)c3)n2)cc1` showed an emission maximum (in C1CCCCC1) of 438.78 nm, an emission maximum (in C1CCOC1) of 595.92 nm and an emission maximum (in Cc1ccccc1) of 504.9 nm.

Where the note is “in ClCCl”, `CCCCN1C(=O)c2cc(Oc3ccc(C(C)(C)C)cc3)c3c4c(Oc5ccc(C(C)(C)C)cc5)cc5c(=O)[nH]/c(=C\c6ccccn6)c6cc(Oc7ccc(C(C)(C)C)cc7)c(c7c(Oc8ccc(C(C)(C)C)cc8)cc(c2c37)C1=O)c4c56` showed an emission maximum of 652 nm.

For `CN(C)c1ccc2nc3c(cc2c1)c(-c1ccccc1)nn3-c1ccccc1`, the emission maximum (in C1CCCCC1) amounted to 444.44 nm; the emission maximum (in C1CCOC1) amounted to 534.19 nm; the emission maximum (in CC#N) is listed as 561.48 nm; the emission maximum (in CC(C)=O) is 552.79 nm; the emission maximum (in CCCCCl) came out at 516 nm; the emission maximum (in CCCCOCCCC) is 498.75 nm. Further, where the note is “in CN(C)C=O”, the emission maximum worked out at 566.89 nm.

As to `CC(C)(C)c1ccc2c(c1)c1cc(C(C)(C)C)ccc1n2-c1ccc(C#Cc2ccc(C#Cc3ccc(C=C(C#N)C#N)cc3)cc2)cc1`, the emission maximum (in ClCCl) worked out at 474 nm.

Regarding `N#Cc1c(-n2c3ccc(-c4ccccc4)cc3c3cc(-c4ccccc4)ccc32)c(-n2c3ccccc3c3ccccc32)c(-n2c3ccc(-c4ccccc4)cc3c3cc(-c4ccccc4)ccc32)c(-n2c3ccccc3c3ccccc32)c1-n1c2ccc(-c3ccccc3)cc2c2cc(-c3ccccc3)ccc21`, the emission maximum (in Cc1ccccc1) came to 492 nm.

On to `F[B-]1(F)N2C(=Nc3cccc4cccc2c34)c2cccc[n+]21`, for which the emission maximum was determined as 413 nm (in CC#N), 383 nm (in CO), 498 nm (in CS(C)=O) and 384 nm (in Cc1ccccc1).

The molecule `C(#Cc1cccc2cc(-c3ccccc3)c3cc(-c4cc[b-]5c(c4)c(-c4ccccc4)cc4cccc(C#Cc6ccccc6)[n+]54)cc[b-]3[n+]12)c1ccccc1` yielded an emission maximum (in C1CCCCC1) of 630 nm.

Where the note is “in CC#N”, `O=C(O)c1ccc(-c2nc(-c3ccccc3)c3c4ccccc4ccn23)cc1` displayed an emission maximum of 473 nm.

`CCOC(=O)/N=c1/oc2cc(OC)ccc2cc1C#N` had an emission maximum (in ClCCl) of 434 nm.

As for `COc1cc(N(c2ccc(C=C(C#N)C#N)c(OC)c2)c2ccc(C=C(C#N)C#N)c(OC)c2)ccc1C=C(C#N)C#N`, the emission maximum came to 521 nm (in C1COCCO1); 566 nm (in CC#N); 557 nm (in CC(C)=O); 532 nm (in CCOC(C)=O); 575 nm (in CN(C)C=O); 551 nm (in CO). Also, the emission maximum by setting is: (in Cc1ccccc1) 500 nm; (in ClC(Cl)Cl) 514 nm; (in ClCCl) 531 nm.

`COc1ccc(OC)c(C(=O)O)c1`: the emission maximum (in CO) stood at 388 nm.

Consider `COc1cc2c(cc1OC)C1=C[C@H](c3ccc(C)cc3)C3(C(C#N)=C(C#N)N1CC2)c1cc(Br)ccc1-c1ccc(Br)cc13`, for which, under “in ClCCl”, the emission maximum is listed as 405 nm.

Consider `CCCCn1c(-c2ccc(-c3nnc(-c4ccccc4)o3)cc2)nc(-c2ccccc2)c1-c1ccccc1`, for which the emission maximum (in ClCCl) turned out to be 441 nm.

Take `CC1=CC(C)=[N+]2C1=C(c1ccc(N(C)C)cc1)c1c(C)cc(C)n1[B-]2(F)F`: the emission maximum is on record as 513 nm (in C1CCOC1); 508 nm (in CC#N); 511 nm (in CC(=O)C(C)(C)C); 510 nm (in CC(C)=O); 511 nm (in CCCCCC); 510 nm (in CCOC(C)=O). For the setting “in CO”, the emission maximum was 514 nm and 511 nm.

`CC(C)(C)c1ccc(-n2c(-c3ccc(N(c4ccc(-c5ccc(N(c6ccc(-c7nc8c9ccccc9c9ccccc9c8n7-c7ccc(C(C)(C)C)cc7)cc6)c6ccc(-c7nc8c9ccccc9c9ccccc9c8n7-c7ccc(C(C)(C)C)cc7)cc6)cc5)cc4)c4ccc(-c5nc6c7ccccc7c7ccccc7c6n5-c5ccc(C(C)(C)C)cc5)cc4)cc3)nc3c4ccccc4c4ccccc4c32)cc1` displayed an emission maximum (in ClCCl) of 430 nm.

For `COc1ccc(C2=[N+]3C(=Nc4c(-c5ccccc5)c(Br)c(-c5ccc(OC)cc5)n4[B-]3(F)F)C(c3ccccc3)=C2Br)cc1`, the emission maximum by setting is: (in ClC(Cl)Cl) 714 nm; (in ClCCl) 714 nm.

Turning to `O=Cc1cc(N2CCCCC2)c2ccc3c(N4CCCCC4)cc(N4CCCCC4)c4ccc1c2c43`, the emission maximum reads like this: (in C1COCCO1) 557 nm; (in CC#N) 596 nm; (in CC(C)=O) 581 nm; (in CCCCCC) 520 nm; (in CCO) 635 nm; (in CCOC(C)=O) 562 nm. For the same molecule, the emission maximum amounted to 643 nm (in CO), 601 nm (in CS(C)=O), 554 nm (in Cc1ccccc1) and 597 nm (in ClCCl).

With `CC[n+]1nc2cc3c4c(c2c2cc(C)ccc21)CCCN4CCC3`, the emission maximum (in O) was 571 nm.

Molecule `CN(C)c1ccc(/C=C/c2cc(/C=C/c3ccc(N(C)C)cc3)ncn2)cc1` showed an emission maximum (in ClCCl) of 530 nm.

As for `C[n+]1ccc(-c2cc[n+](C)cc2)cc1`, the emission maximum (in CC#N) came out at 353 nm.

`CC(=O)c1c(N[C@@H](Cc2ccccc2)C(=O)O)c2ccc(N(C)C)cc2oc1=O` returned an emission maximum (in ClCCl) of 450 nm.

`CC1=[N+]2C(=C(c3c4ccccc4cc4ccccc34)c3ccc(/C=C/C(C)(C)C)n3[B-]2(F)F)C=C1` gave an emission maximum (in ClC(Cl)Cl) of 556 nm.

Molecule `CC[N+]1(CC)CN2C(=N1)C(C(=O)O)=Cc1cc(SC)ccc12` came in with an emission maximum (in O) of 515 nm.

`Cc1n[nH]c2c1C(c1ccc([N+](=O)[O-])cc1)C(C#N)=C(N)O2` (stereo not given) came in with an emission maximum (in C1CCOC1) of 393 nm; an emission maximum (in C1COCCO1) of 390 nm; an emission maximum (in CC#N) of 407 nm; an emission maximum (in CCCCO) of 410 nm; an emission maximum (in CCCO) of 411 nm; an emission maximum (in CCO) of 414 nm. The same molecule returned an emission maximum (in CCOC(C)=O) of 396 nm; an emission maximum (in CN(C)C=O) of 405 nm; an emission maximum (in CO) of 417 nm; an emission maximum (in CS(C)=O) of 404 nm; an emission maximum (in Cc1ccccc1) of 387 nm; an emission maximum (in ClCCl) of 402 nm.

Consider `O=C(O)COc1cccc(-c2c3nc(cc4ccc([nH]4)c(-c4cccc(OCC(=O)O)c4)c4nc(cc5ccc2[nH]5)CC4)CC3)c1`, for which, for the setting “in CS(C)=O”, the emission maximum came out at 738 nm.

The molecule `COc1ccc(-c2cc(B(c3c(C)cc(C)cc3C)c3c(C)cc(C)cc3C)c(-c3sc(-c4ccc(OC)cc4)cc3P(=O)(c3ccccc3)c3ccccc3)s2)cc1` gave an emission maximum (in CO) of 586 nm.

Where the note is “in Cc1ccccc1”, `COc1ccc(N2c3ccc4ccccc4c3-c3c4ccccc4cc[n+]3[B-]2(c2ccccc2)c2ccccc2)cc1` yielded an emission maximum of 641 nm.

As for `CC1=[N+]2C(=C(c3ccc(Br)cc3)c3ccc(C)n3[B-]2(F)F)C=C1c1cc2n(c1)[B-](F)(F)[N+]1=CC=CC1=C2c1c(C)cc(C)cc1C`, the emission maximum (in C1CCCCC1) amounted to 642 nm and the emission maximum (in CCOC(C)=O) amounted to 670 nm.

Regarding `CC(C)(C)c1ccc2c(c1)c1cc(C(C)(C)C)ccc1n2-c1ccc(C#Cc2ccc3c4ccc(C#Cc5ccc(C=C(C#N)C#N)cc5)cc4n(-c4ccc(C(F)(F)F)cc4)c3c2)cc1`, the emission maximum (in ClCCl) stood at 454 nm.

`O=C(O)c1ccc(C2=C(/C=C/c3[se]c4ccccc4[n+]3CCCCS(=O)(=O)[O-])CCC/C2=C\C=C2/[Se]c3ccccc3N2CCCCS(=O)(=O)[O-])cc1` had an emission maximum (in CO) of 813 nm.

Molecule `CN(C)CCN(Cc1c2ccccc2cc2ccccc12)c1ccc([N+](=O)[O-])cc1` had an emission maximum (in C1CCCCC1) of 411 nm; an emission maximum (in C1CCOC1) of 414 nm; an emission maximum (in CC#N) of 389 nm; an emission maximum (in CC(C)=O) of 387 nm; an emission maximum (in CCO) of 410 nm; an emission maximum (in CN(C)C=O) of 389 nm. Further, the emission maximum is on record as 389 nm (in CO) and 415 nm (in ClC(Cl)Cl).

As for `CC1=[N+]2C(=C(NCc3ccccc3)c3ccc(C)n3[B-]2(F)F)C=C1c1cc2n(c1)[B-](F)(F)[N+]1=CC=CC1=C2c1c(C)cc(C)cc1C`, the emission maximum reads like this: (in C1CCCCC1) 636 nm; (in CCOC(C)=O) 700 nm.

Consider `Cc1ccc(C2=Cc3c4ccccc4c4ccccc4[n+]3[B-](F)(F)O2)cc1`, for which the emission maximum (in ClC(Cl)Cl) is given as 450 nm.

The molecule `CCCCCCCCc1ccc(-n2c3c4ccccc4nc(-c4ccc(C#N)cc4)c3c3c2c2c(-c4ccc(C#N)cc4)nc4ccccc4c2n3-c2ccc(CCCCCCCC)cc2)cc1` registered an emission maximum (in ClC(Cl)Cl) of 510 nm.

`N#Cc1cccc(-c2cccc(-c3nc(-c4cccc(-c5cccc(C#N)c5)c4)nc(-c4cccc(-c5cccc(C#N)c5)c4)n3)c2)c1` came in with an emission maximum (in ClCCl) of 420 nm.

`N#Cc1c(-n2nnc3c2CCC2C(CC3)[C@@H]2CO)n([C@H]2C[C@H](O)[C@@H](CO)O2)c2ncnc(N)c12` (stereo not given in full): under “in CO”, the emission maximum came to 380 nm.
